System: oedème généralisé au dextran
Experiment: generalized dextran oedema test (anti-inflammatory activity, oral, rat)
Format: in vivo

Structure (SMILES) | propriétés anti-inflammatoires (test de l'oedème généralisé au dextran) (solution à 1 % dans l'huile d'arachide, voie orale chez le rat, by action on the vascular phase and decrease of platelet aggregation) | activité anti-inflammatoire (même type) (administration par voie orale chez le rat, concentration and vehicle not stated)
CC(C)CCCCCCCCCCC(=O)O [acide isomyristique, acide méthyl-12 tridécanoTque] | propriétés anti-inflammatoires marquées | –
CCC(C)CCCCCCCCCC(=O)O (centres unmarked) [acide antéisomyristique, acide méthyl-11 tridécanoique] | – | Le même type d'activité anti-inflammatoire a été mis en évidence
